In patent US8093231B2, “Sulfonylethyl phosphorodiamidates” (Telik, Inc., priority 2004, dated 2012):
pIC50: −log10 of the molar value. Read-outs that look alike come from different tables or passages of the source.

Tests used:
[1] = system: DLD-1 (colorectal adenocarcinoma); experiment: Cytotoxicity/growth inhibition assay, DLD-1; type: cell-based, human; conditions: read-out: IC50 (DLD-1)
Procedure, shortened: (§1)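 Test compounds in DMSO (0.1–200 μM; final DMSO 0.5%) added to freshly diluted cells (3×10^3 cells/mL MX-1 and DLD-1, 6×10^3 cells/mL LNCap), triplicate wells. Cultured ~three doubling times (3 days MX-1, 4 days DLD-1/LNCap). CellTiter-Glo luminescence, 15 min room temperature; growth expressed as % of DMSO solvent control.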

[2] = system: MX-1 (human breast cancer) tumor; experiment: MX-1 xenograft assay, intraperitoneal administration; type: in vivo, athymic nu/nu mice; conditions: for activity in MX-1 xenograft assay / tumor growth inhibition compared to vehicle: 100 mg/Kg intraperitoneal once/day for 5, 9, or 14 days; for tumor inhibition / dose dependence of tumor inhibition: intraperitoneal; for dose dependence of tumor inhibition: range of doses and treatment times
Protocol: (§2) Female athymic nu/nu mice (Harlan, Indianapolis, Ind., U.S.A. or similar vendor), 6-8 weeks old (approximately 20 g), were implanted in the mammary fat pad of the right fore flank with 20-30 mg pieces of MX-1 (human breast cancer) tumor harvested from similar mice that had previously been implanted with the MX-1 tumor. Approximately 7-10 days after tumor transplantation, when the tumor weight was approximately 50-200 mg, the mice were assigned to treatment groups. […] All compounds were active in this assay, with tumor growth inhibition compared to vehicle between 5% (compound 171A) and 99% (compound 13A), with most compounds causing at least 30% tumor growth inhibition. […] Compound 13A was tested at 25, 50, or 100 mg/Kg for 5 or 9 days, causing tumor inhibition between 19% (25 mg/Kg for 5 days) and 99% (100 mg/Kg for 9 days). Compound 70A was tested at 50, 100, and 150 mg/Kg for 5 or 12 days, causing tumor inhibition between 16% (50 mg/Kg for 5 days) and 95% (150 mg/Kg for 12 days).

[3] = system: MX-1 (breast carcinoma); experiment: Cytotoxicity/growth inhibition assay, MX-1; type: cell-based, human; conditions: read-out: IC50 (MX-1)
Procedure, shortened: as §1

[4] = system: LNCap (prostate carcinoma); experiment: Cytotoxicity/growth inhibition assay, LNCap; type: cell-based, human; conditions: read-out: IC50 (LNCap)
Procedure, shortened: as §1

[5] = system: MiaPaCa-2 (human pancreatic cancer) tumor; experiment: MiaPaCa-2 xenograft assay, oral administration; type: in vivo, athymic nu/nu mice; conditions: 200 mg/Kg for 7 days
[6] = system: Lambda DNA; experiment: DNA damage assay; type: biochemical; conditions: 100 μM and 300 μM, room temperature, one day, PCR amplification
[7] = system: MiaPaCa-2 (human pancreatic cancer) tumor; experiment: MiaPaCa-2 xenograft assay, intraperitoneal administration; type: in vivo, athymic nu/nu mice; conditions: 100 mg/Kg intraperitoneal once/day for 14 days; for inhibition of tumor growth compared to vehicle: measured 15 days after start
Protocol: Male athymic nu/nu mice, 6-8 weeks old (approximately 20 g), were implanted subcutaneously in the right fore flank with 20-30 mg pieces of MiaPaCa-2 (human pancreatic cancer) tumor harvested from similar mice that had previously been implanted with the MiaPaCa-2 tumor. Approximately 7-10 days after tumor transplantation, when the tumor weight was approximately 50-200 mg, the mice were assigned to treatment groups. Groups of mice were treated with compound 13A or 70A at 100 mg/Kg by intraperitoneal injection once/day for 14 days, with vehicle control. Tumor growth inhibition was measured 15 days after the start of treatment.

[8] = system: P388 murine leukemia cell line; experiment: Cross-resistance assay; type: cell-based; conditions: P388 vs doxorubicin-resistant derivative; cross-resistant if resistance ratio approximately 2 or higher
From the text: (§3) The human cancer cell lines DLD-1 (colorectal adenocarcinoma), LNCap (prostate carcinoma), and OVCAR-3 (ovarian carcinoma) were obtained from the American Type Culture Collection, Manassas, Va., U.S.A., and HL-60 (promyeloid myelocytic leukemia), MX-1 (breast carcinoma), P388, and P388ADR from the National Cancer Institute, Bethesda, Md., U.S.A. Carboplatin, doxorubicin, and melphalan were obtained from Sigma-Aldrich Chemical Company, St. Louis, Mo., U.S.A. The CellTiter-Glo assay kit was obtained from Promega Corporation, Madison, Wis., U.S.A., and the Cellular DNA Cytometric Analysis Reagent Kit from Roche Diagnostics Corporation, Indianapolis, Ind., U.S.A. Lambda DNA was obtained from New England Biolabs, Beverly, Mass., U.S.A., and SYBR-Gold from Molecular Probes, Inc., Eugene, Oreg., U.S.A. The DNeasy Tissue Kit was obtained from Qiagen Inc., Valencia, Calif., U.S.A., and AmpliTaq Gold DNA polymerase and PCR reagents from Applied Biosystems, Foster City, Calif., U.S.A. All products were used in accordance with manufacturer's directions. All assays were conducted in triplicate wells, with dimethyl sulfoxide (DMSO) solvent control. The extent of cell growth was expressed as a percentage of the signal from the solvent control wells.

[9] = system: HCT116 (human colon cancer) tumor; experiment: HCT116 xenograft assay, intraperitoneal administration; type: in vivo, athymic nu/nu mice; conditions: for inhibition of tumor growth compared to vehicle: measured 13 days after start; for activity in HCT116 xenograft assay: intraperitoneal once/day for 11 days
Protocol: Male athymic nu/nu mice, 6-8 weeks old (approximately 20 g), were implanted subcutaneously in the right fore flank with 20-30 mg pieces of HCT116 (human colon cancer) tumor harvested from similar mice that had previously been implanted with the HCT116 tumor. Approximately 7-10 days after tumor transplantation, when the tumor weight was approximately 50-200 mg, the mice were assigned to treatment groups. Groups of mice were treated with compounds 5A or 13A at 100 mg/Kg, or compound 70A at 150 mg/Kg, by intraperitoneal injection once/day for 11 days, with vehicle control. Tumor growth inhibition was measured 13 days after the start of treatment.

[10] = system: MX-1 (human breast cancer) tumor; experiment: MX-1 xenograft assay, oral administration; type: in vivo, athymic nu/nu mice; conditions: for inhibition of tumor growth compared to vehicle / dose dependence of tumor inhibition, oral: measured 13 days after start; for activity in MX-1 xenograft assay, oral / dose dependence of tumor inhibition, oral: gavage once/day for 5 days
Protocol: as §2
A study similar to that described in In vivo Example 1 was performed using oral administration of compounds 13A and 70A. Groups of mice were treated with compound 13A at 50, 100, or 300 mg/Kg, or compound 70A at 100, 150, 200, or 250 mg/Kg, by gavage once/day for 5 days (with vehicle control). Tumor growth inhibition was measured 13 days after the start of treatment.

[11] = system: DLD-1 cells; experiment: Cell cycle analysis; type: cell-based, human; conditions: approximately IC75-85, one and two days, propidium iodide FACS
[12] = system: OVCAR-3 cell line; experiment: Synergism assay; type: cell-based, human
From the text: as §3

[13] = 100 mg/Kg intraperitoneal once/day for 11 days
[14] = DLD-1 cells, 4 days culture, CellTiter-Glo, 0.1-200 μM tested
[15] = MX-1 cells, 3 days culture, CellTiter-Glo, 0.1-200 μM tested
[16] = LNCap cells, 4 days culture, CellTiter-Glo, 0.1-200 μM tested

SMILES	pIC50 ([1]; Homo sapiens, DLD-1, 96 h)	activity in MX-1 xenograft assay [2]	pIC50 ([3]; Homo sapiens, MX1, 72 h)	pIC50 ([4]; Homo sapiens, LNCaP, 96 h)	activity in HCT116 xenograft assay [9]	dose dependence of tumor inhibition [2]	pIC50 [1, 14]	pIC50 [3, 15]	pIC50 [4, 16]	further results
O=C(CS(=O)(=O)CCOP(=O)(N(CCCl)CCCl)N(CCCl)CCCl)N[C@@H](Cc1ccccc1)C(=O)O [Compound 15A, N-{2-[[2-[[bis[bis(2-chloroethyl)amino]phosphinyl]oxy]ethyl]sulfonyl]acetyl}-L-phenylalanine]	4.86	active	4.63	≤ 3.70	–	–	–	–	–	–
N[C@@H](CS(=O)(=O)CCOP(=O)(N(CCCl)CCCl)N(CCCl)CCCl)C(=O)O [Compound 70A, 3-[[2-[[bis[bis(2-chloroethyl)amino]phosphinyl]oxy]ethyl]sulfonyl]-L-alanine]	4.97	active	4.44	–	active	dose-dependent tumor inhibition	–	–	–	activity in MiaPaCa-2 xenograft assay, oral [5]: active; inhibition of tumor growth [5]: 27%; DNA damage activity [6]: only marginal DNA damage activity; activity in MiaPaCa-2 xenograft assay [7]: active; inhibition of tumor growth compared to vehicle [7]: 38%; cross-resistance with doxorubicin [8]: not cross-resistant; inhibition of tumor growth compared to vehicle ([9]; 150 mg/Kg intraperitoneal once/day for 11 days): 26%; inhibition of tumor growth compared to vehicle ([10]; 100 mg/Kg gavage once/day for 5 days): 36%; inhibition of tumor growth compared to vehicle ([10]; 250 mg/Kg gavage once/day for 5 days): 96%; activity in MX-1 xenograft assay, oral [10]: active; dose dependence of tumor inhibition, oral [10]: dose-dependent tumor inhibition; cell cycle effect (G2/M cycle block) [11]: induced a G2/M cycle block; tumor inhibition ([2]; 50 mg/Kg for 5 days): 16%; tumor inhibition ([2]; 150 mg/Kg for 12 days): 95%
CNC(=O)CS(=O)(=O)CCOP(=O)(N(CCCl)CCCl)N(CCCl)CCCl [Compound 13A, N-methyl-2-[[2-[[bis[bis(2-chloroethyl)amino]phosphinyl]oxy]ethyl]sulfonyl]acetamide]	5.15	active	4.93	4.27	active	dose-dependent tumor inhibition	–	–	–	activity in MiaPaCa-2 xenograft assay, oral [5]: active; inhibition of tumor growth [5]: 82%; activity in MiaPaCa-2 xenograft assay [7]: active; inhibition of tumor growth compared to vehicle [7]: 78%; inhibition of tumor growth compared to vehicle [9, 13]: 43%; inhibition of tumor growth compared to vehicle ([10]; 50 mg/Kg gavage once/day for 5 days): 63%; inhibition of tumor growth compared to vehicle ([10]; 300 mg/Kg gavage once/day for 5 days): 100%; activity in MX-1 xenograft assay, oral [10]: active; dose dependence of tumor inhibition, oral [10]: dose-dependent tumor inhibition; tumor growth inhibition compared to vehicle [2]: 99%; tumor inhibition ([2]; 25 mg/Kg for 5 days): 19%; tumor inhibition ([2]; 100 mg/Kg for 9 days): 99%
O=C(CS(=O)(=O)CCOP(=O)(N(CCCl)CCCl)N(CCCl)CCCl)NCCN1CCOCC1 [Compound 23A]	–	active	–	–	–	–	5.18	4.59	4.32	–
O=P(OCCS(=O)(=O)Cc1ccccc1)(N(CCCl)CCCl)N(CCCl)CCCl [Compound 128A, α-[[2-[[bis[bis(2-chloroethyl)amino]phosphinyl]oxy]ethyl]sulfonyl]toluene]	5.49	active	5.35	–	–	dose-dependent tumor inhibition	–	–	–	cross-resistance with doxorubicin [8]: not cross-resistant; cell cycle effect (G2/M cycle block) [11]: induced a G2/M cycle block; synergism with carboplatin [12]: synergistic
O=P(OCCS(=O)(=O)Cc1cccs1)(N(CCCl)CCCl)N(CCCl)CCCl [Compound 180A]	–	active	–	–	–	–	5.31	5.03	4.77	–
CCCCS(=O)(=O)CCOP(=O)(N(CCCl)CCCl)N(CCCl)CCCl [Compound 5A]	–	active	–	–	active	–	5.18	4.84	4.37	inhibition of tumor growth compared to vehicle [9, 13]: 10%
O=C(c1ccco1)C1CCN(C(=O)c2ccc(CS(=O)(=O)CCOP(=O)(N(CCCl)CCCl)N(CCCl)CCCl)cc2)CC1 [Compound 171A]	–	active	–	–	–	–	5.21	5.21	4.56	tumor growth inhibition compared to vehicle [2]: 5%
CCOC(=O)CNC(=O)c1ccc(CS(=O)(=O)CCOP(=O)(N(CCCl)CCCl)N(CCCl)CCCl)cc1 [Compound 172A, α-[[2-[[bis[bis(2-chloroethyl)amino]phosphinyl]oxy]ethyl]sulfonyl]-4-[(ethoxycarbonylmethyl)-aminocarbonyl]toluene]	5.21	active	5.32	4.50	–	–	–	–	–	–
